# Data from PubChem BioAssay (NCI).
#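 Following 48 hours of exposure in 96-well plates, responses at five concentrations were used to interpolate endpoints linearly. The concentration for full growth arrest is given as TGI.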 Where a SMILES comes first, the peptide text is derived from it. The star is where a group is joined. Boc = CC(C)(C)OC(=O)*
# Experiments:
# Assay in all cases: NCI anticancer screen, dose series, 48 h
# NCI-H460 lung = system: NCI-H460 lung
# OVCAR-4 ovarian = system: OVCAR-4 ovarian
# SF-295 CNS = system: SF-295 CNS
# NCI-H23 lung = system: NCI-H23 lung
# SR leukemia = system: SR leukemia
# COLO 205 colon = system: COLO 205 colon
# UACC-257 melanoma = system: UACC-257 melanoma
# KM12 colon = system: KM12 colon
# SF-539 CNS = system: SF-539 CNS
# HCC-2998 colon = system: HCC-2998 colon
# 786-0 renal = system: 786-0 renal
# CAKI-1 renal = system: CAKI-1 renal
# SK-MEL-28 melanoma = system: SK-MEL-28 melanoma
# RXF 393 renal = system: RXF 393 renal
# SK-OV-3 ovarian = system: SK-OV-3 ovarian
# HS 578T breast = system: HS 578T breast
# A498 renal = system: A498 renal
# BT-549 breast = system: BT-549 breast
# MCF7 breast = system: MCF7 breast
# MDA-MB-435 = system: MDA-MB-435
Compound,TGI (NCI-H460 lung),TGI (OVCAR-4 ovarian),TGI (SF-295 CNS),TGI (NCI-H23 lung),TGI (SR leukemia),TGI (COLO 205 colon),TGI (UACC-257 melanoma),TGI (KM12 colon),TGI (SF-539 CNS),TGI (HCC-2998 colon),TGI (786-0 renal),TGI (CAKI-1 renal),TGI (SK-MEL-28 melanoma),TGI (RXF 393 renal),TGI (SK-OV-3 ovarian),TGI (HS 578T breast),TGI (A498 renal),TGI (BT-549 breast),TGI (MCF7 breast),TGI (MDA-MB-435)
Nc1ccc2ncc(Nc3ccc(F)cc3)nc2c1,> 100 µM,> 100 µM,> 100 µM,> 100 µM,> 100 µM,> 100 µM,> 100 µM,> 100 µM,> 100 µM,> 100 µM,> 100 µM,> 100 µM,> 100 µM,,,,,,,
Nc1ccc(C(=O)NN2C(=O)C(Cl)C2c2cc(Br)cc(Br)c2O)cc1 (configuration not stated),> 100 µM,> 100 µM,> 100 µM,58 µM,> 100 µM,> 100 µM,85.9 µM,> 100 µM,57 µM,> 100 µM,> 100 µM,64 µM,> 100 µM,79.8 µM,> 100 µM,,,,,
COC(=O)C(Cc1c[nH]c2ccccc12)NC(=O)C(Cc1c[nH]c2ccccc12)NC(=O)C(Cc1c[nH]c2ccccc12)NC(=O)OC(C)(C)C (stereo not drawn) (Boc-Trp-Trp-Trp-OMe; configuration not given here),36 µM,,,31.8 µM,,42.7 µM,> 100 µM,38.2 µM,,32.9 µM,31.7 µM,,33.8 µM,21 µM,,48.4 µM,> 100 µM,33.8 µM,,
O=C(CSc1nnc(Cc2ccccc2)o1)Nc1ccccc1Cl,> 100 µM,> 100 µM,> 100 µM,> 100 µM,,> 100 µM,,> 100 µM,> 100 µM,> 100 µM,> 100 µM,> 100 µM,> 100 µM,,> 100 µM,,> 100 µM,,,
CCc1cccc(CC)c1Nc1nc2c(s1)C(=O)c1ccccc1C2=O,34.9 µM,,27.8 µM,32.8 µM,89.5 µM,49.6 µM,37.8 µM,41 µM,49.1 µM,35.6 µM,36 µM,30 µM,35.9 µM,40.3 µM,89.8 µM,71.4 µM,,,52 µM,31.9 µM
CN(C)/N=C1\C=C2CC[C@H](O[Si](C)(C)C(C)(C)C)[C@@]2(C)CC1,31.9 µM,28.6 µM,30 µM,52.4 µM,40.9 µM,32.1 µM,30.6 µM,30.9 µM,42.4 µM,30.6 µM,31.9 µM,27.3 µM,29.5 µM,28 µM,68.2 µM,43.9 µM,38.7 µM,,31.5 µM,32 µM
CC(C)(O)/C=C\P(C)(=O)c1ccccc1 (configuration not stated),> 100 µM,> 100 µM,> 100 µM,> 100 µM,> 100 µM,> 100 µM,> 100 µM,> 100 µM,> 100 µM,> 100 µM,> 100 µM,> 100 µM,> 100 µM,> 100 µM,> 100 µM,> 100 µM,,,> 100 µM,> 100 µM
CC(=O)OCC1OC(O[C@@H]2C[C@H]3C(C)(C)[C@H](OC(C)=O)CC[C@]3(C)[C@H]3CC[C@]4(C)C(=CC[C@H]4[C@@H](C)C[C@@H](O)[C@H](O)C(C)(C)O)[C@@]32C)C(O)C(O)C1O (some centres not stated),31.2 µM,29.8 µM,33 µM,35.5 µM,31.8 µM,27.7 µM,35.1 µM,,29.9 µM,35.1 µM,29.9 µM,27.3 µM,29.8 µM,,32.5 µM,,34 µM,,33.2 µM,28 µM
O=[N+]([O-])c1cc2c(cc1O)[nH]c1cccc([N+](=O)[O-])c12,> 100 µM,> 100 µM,> 100 µM,> 100 µM,> 100 µM,> 100 µM,> 100 µM,> 100 µM,> 100 µM,> 100 µM,> 100 µM,> 100 µM,> 100 µM,,,,,,,
CCN(CC)CCSc1n[nH]c(-c2c[nH]c3nc(C)ccc3c2=O)n1,> 100 µM,> 100 µM,> 100 µM,> 100 µM,,> 100 µM,> 100 µM,> 100 µM,,,> 100 µM,> 100 µM,> 100 µM,> 100 µM,,> 100 µM,> 100 µM,> 100 µM,> 100 µM,> 100 µM
Cc1ccc(/C=C/C(=O)C(C)C)cc1,> 100 µM,> 100 µM,> 100 µM,> 100 µM,98.4 µM,> 100 µM,> 100 µM,> 100 µM,,> 100 µM,> 100 µM,,> 100 µM,> 100 µM,> 100 µM,,> 100 µM,,,
COc1ccc([C@@H]2CC(=O)NCCCNCCCCNCCCN2)cc1,> 100 µM,> 100 µM,> 100 µM,> 100 µM,> 100 µM,> 100 µM,> 100 µM,> 100 µM,> 100 µM,> 100 µM,> 100 µM,> 100 µM,> 100 µM,> 100 µM,> 100 µM,,> 100 µM,,,
Fc1ccc2c(c1)SC1Oc3ccccc3-c3c1c-2nn3-c1ccccc1 (configuration not stated),> 100 µM,,> 100 µM,> 100 µM,,> 100 µM,> 100 µM,> 100 µM,> 100 µM,> 100 µM,> 100 µM,,> 100 µM,> 100 µM,> 100 µM,,> 100 µM,,,
COc1cc2c(cc1OC)C(=O)Cc1ccc3c(c1CNCC2)OCO3,> 100 µM,> 100 µM,> 100 µM,> 100 µM,,> 100 µM,> 100 µM,> 100 µM,> 100 µM,> 100 µM,> 100 µM,> 100 µM,> 100 µM,,> 100 µM,,> 100 µM,,,
COc1cc(C(C#N)NNC(=O)Cc2ccccc2)cc(OC)c1OC (configuration not stated),> 100 µM,> 100 µM,> 100 µM,> 100 µM,> 100 µM,> 100 µM,> 100 µM,> 100 µM,> 100 µM,,> 100 µM,> 100 µM,> 100 µM,> 100 µM,> 100 µM,,,,,
CCOC(=O)CCSS(=O)(=O)C(F)(F)F,> 100 µM,> 100 µM,> 100 µM,> 100 µM,,> 100 µM,> 100 µM,> 100 µM,,> 100 µM,> 100 µM,> 100 µM,> 100 µM,> 100 µM,> 100 µM,,> 100 µM,> 100 µM,> 100 µM,> 100 µM
Cc1cc(C)c(S(=O)(=O)N(CCCCCCN)OCCCN)c(C)c1,31.6 µM,46.2 µM,34.8 µM,32 µM,,32.3 µM,29.7 µM,32.1 µM,34.2 µM,32.6 µM,32.1 µM,,36.1 µM,,34 µM,30.2 µM,,33.3 µM,37.3 µM,> 100 µM
CC(OC1CC(=O)CC2C(=O)C=CC(=O)C12)c1ccccc1 (configuration not stated),> 59.4 µM,32.4 µM,33 µM,33.6 µM,42.8 µM,32 µM,35.4 µM,32.4 µM,34.5 µM,29.7 µM,26.9 µM,31.9 µM,36.4 µM,35.8 µM,> 56.2 µM,,32 µM,,,
COC(=O)/C(=N\N)C(C(=O)C(=O)Nc1cccc([N+](=O)[O-])c1)c1nc2ccc(C(=O)c3ccccc3)cc2[nH]c1=O (configuration not stated),> 100 µM,> 100 µM,> 100 µM,> 100 µM,,> 100 µM,> 100 µM,> 100 µM,> 100 µM,> 100 µM,> 100 µM,> 100 µM,> 100 µM,> 100 µM,> 100 µM,> 100 µM,,> 100 µM,> 100 µM,> 100 µM
CC(C)[C@H]1CO[C@@H]2O[C@H](C)CC(=O)N21,> 100 µM,> 100 µM,> 100 µM,> 100 µM,> 100 µM,> 100 µM,> 100 µM,> 100 µM,> 100 µM,,> 100 µM,> 100 µM,> 100 µM,> 100 µM,> 100 µM,,,,,
CC(C)c1cccc(C(C)C)c1NC(=O)C(=O)CC(=O)CC(c1ccccc1)c1c(O)c2ccccc2oc1=O (configuration not stated),> 100 µM,> 100 µM,> 100 µM,> 100 µM,> 100 µM,> 100 µM,> 100 µM,> 100 µM,> 100 µM,> 100 µM,> 100 µM,> 100 µM,> 100 µM,> 100 µM,> 100 µM,,> 100 µM,,,
COc1cc(CNc2nc3ccccc3n2Cc2ccccc2)cc(CN2CCOCC2)c1O,> 100 µM,> 100 µM,41.6 µM,> 100 µM,,40.1 µM,39.9 µM,> 100 µM,34.5 µM,85.1 µM,31.6 µM,> 100 µM,34.6 µM,47.7 µM,> 100 µM,80.9 µM,39.2 µM,,79.5 µM,44.7 µM
COc1cc2c(cc1O)[C@H](C)C(c1ccccc1OC)O2 (some centres not stated),4.2 µM,60.2 µM,22.9 µM,> 100 µM,,27 µM,> 100 µM,> 100 µM,41.5 µM,90 µM,50.5 µM,69.2 µM,> 100 µM,93.6 µM,> 100 µM,,56 µM,,,
CC(NC1=NCCO1)c1cccs1 (configuration not stated),> 100 µM,> 100 µM,31 µM,> 100 µM,> 100 µM,35.9 µM,37.9 µM,31.7 µM,,31.5 µM,36.6 µM,,53.9 µM,,> 100 µM,> 100 µM,> 100 µM,,55.9 µM,44.4 µM
CS(=O)(=O)N1CC(CCl)c2ccc(NCCN)cc21 (configuration not stated),> 100 µM,> 100 µM,,> 100 µM,,> 100 µM,> 100 µM,> 100 µM,> 100 µM,> 100 µM,72 µM,> 100 µM,> 100 µM,> 100 µM,87.9 µM,> 100 µM,> 100 µM,,> 100 µM,> 100 µM
NC(N)=NCc1ccc2c(c1)OCO2,> 100 µM,> 100 µM,> 100 µM,> 100 µM,> 100 µM,,,> 100 µM,> 100 µM,> 100 µM,> 100 µM,> 100 µM,> 100 µM,> 100 µM,> 100 µM,> 100 µM,> 100 µM,,,> 100 µM
COC(=O)CCCC(=O)NC1=C(Nc2ccccc2)C(=O)c2ccccc2C1=O,33.7 µM,37.1 µM,33 µM,29.6 µM,> 100 µM,35.7 µM,26.4 µM,20.2 µM,35 µM,29.5 µM,33.5 µM,44 µM,30.3 µM,,53.4 µM,84.4 µM,32.5 µM,,32.1 µM,17.4 µM
Brc1cccc(Nc2ncnc3sc4c(c23)CCC(Nc2cccc(Br)c2)C4)c1 (configuration not stated),> 100 µM,> 100 µM,> 100 µM,> 100 µM,,> 100 µM,> 100 µM,> 100 µM,,> 100 µM,> 100 µM,> 100 µM,> 100 µM,> 100 µM,> 100 µM,> 100 µM,,> 100 µM,> 100 µM,> 100 µM
